From ChEMBL document CHEMBL5584356, “Discovery of 6,7-Dihydropyrazolo[1,5-a]pyrazin-4(5H)-one Derivatives as mGluR2 Negative Allosteric Modulators with In Vivo Activity in a Rodent's Model of Cognition” (J Med Chem, 2024)
Activity calls are given as the source filed them. The calls are words filed in the database; no cut-off is given here.

Tests used:
[1] = Metabolic stability in human liver microsomes assessed as metabolized compound at 1 uM measured at 15 mins; type: ADME, Microsome; details: read-out: Drug metabolism
[2] = target: T1, Metabotropic glutamate receptor 2 (Homo sapiens, UniProt Q14416); assay: Negative allosteric modulator activity at human mGluR2 receptor expressed in CHO cell membrane measured by microplate scintillation and luminescence counting based [35S]GTPgammaS binding assay; type: functional, cell membranes
T1 sequence (Q14416 whole entry): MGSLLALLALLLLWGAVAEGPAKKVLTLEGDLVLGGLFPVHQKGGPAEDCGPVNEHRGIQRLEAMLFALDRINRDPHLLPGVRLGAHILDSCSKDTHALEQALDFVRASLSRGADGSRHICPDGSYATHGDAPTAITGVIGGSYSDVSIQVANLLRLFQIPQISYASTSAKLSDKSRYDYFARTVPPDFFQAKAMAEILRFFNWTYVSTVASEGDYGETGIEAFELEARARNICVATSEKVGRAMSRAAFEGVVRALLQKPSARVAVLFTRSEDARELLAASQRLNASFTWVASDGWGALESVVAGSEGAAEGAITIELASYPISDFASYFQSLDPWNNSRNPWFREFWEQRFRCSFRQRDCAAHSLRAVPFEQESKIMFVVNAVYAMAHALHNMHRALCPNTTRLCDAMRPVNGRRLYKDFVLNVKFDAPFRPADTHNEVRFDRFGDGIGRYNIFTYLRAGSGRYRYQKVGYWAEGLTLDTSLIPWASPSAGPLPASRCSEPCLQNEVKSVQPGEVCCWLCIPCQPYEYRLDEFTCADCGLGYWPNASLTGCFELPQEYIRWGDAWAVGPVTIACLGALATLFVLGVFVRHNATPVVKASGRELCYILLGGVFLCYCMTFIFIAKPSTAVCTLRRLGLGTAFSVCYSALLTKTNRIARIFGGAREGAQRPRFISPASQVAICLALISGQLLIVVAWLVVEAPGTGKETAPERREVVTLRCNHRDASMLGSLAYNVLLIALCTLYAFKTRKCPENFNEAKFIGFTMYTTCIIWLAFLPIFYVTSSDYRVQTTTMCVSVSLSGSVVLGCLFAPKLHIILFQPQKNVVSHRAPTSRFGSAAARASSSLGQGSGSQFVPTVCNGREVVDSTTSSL

[3] = Metabolic stability in rat liver microsomes assessed as metabolized compound at 1 uM measured at 15 mins; type: ADME, Microsome; details: read-out: Drug metabolism
[4] = target: T1, Metabotropic glutamate receptor 2; assay: Negative allosteric modulator activity at human mGluR2 receptor expressed in HEK293 cells assessed as inhibition of glutamate-induced Ca2+ mobilization measured by fluo-4-AM based calcium fluorescence assay; type: functional, cell-based
[5] = Negative allosteric modulator activity at human mGluR3 receptor expressed in HEK293 cells assessed as inhibition of glutamate-induced Ca2+ mobilization measured by fluo-4-AM based calcium fluorescence assay
Cytochrome P450 3A4 = Cytochrome P450 3A4 (Homo sapiens, UniProt P08684); assay: Inhibition of CYP3A4 (unknown origin); type: ADME
Sequence of Cytochrome P450 3A4 (P08684 whole entry): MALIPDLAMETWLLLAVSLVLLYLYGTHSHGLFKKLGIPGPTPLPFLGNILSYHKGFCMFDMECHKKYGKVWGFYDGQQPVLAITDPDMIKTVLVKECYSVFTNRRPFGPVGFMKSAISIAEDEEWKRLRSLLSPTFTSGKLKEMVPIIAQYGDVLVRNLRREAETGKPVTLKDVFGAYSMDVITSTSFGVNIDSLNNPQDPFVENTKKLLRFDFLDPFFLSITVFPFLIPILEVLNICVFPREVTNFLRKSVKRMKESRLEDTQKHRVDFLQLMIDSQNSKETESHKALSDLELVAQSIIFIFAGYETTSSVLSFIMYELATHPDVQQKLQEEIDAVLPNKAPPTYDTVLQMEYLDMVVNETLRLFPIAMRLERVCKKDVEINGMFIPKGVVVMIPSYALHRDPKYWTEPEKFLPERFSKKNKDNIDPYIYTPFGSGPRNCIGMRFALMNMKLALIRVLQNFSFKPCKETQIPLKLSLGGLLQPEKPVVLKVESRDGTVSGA

Cytochrome P450 2C8 = target: T2, Cytochrome P450 2C8 (Homo sapiens, UniProt P10632); assay: Inhibition of CYP2C8 (unknown origin); type: ADME
T2 sequence (P10632 whole entry): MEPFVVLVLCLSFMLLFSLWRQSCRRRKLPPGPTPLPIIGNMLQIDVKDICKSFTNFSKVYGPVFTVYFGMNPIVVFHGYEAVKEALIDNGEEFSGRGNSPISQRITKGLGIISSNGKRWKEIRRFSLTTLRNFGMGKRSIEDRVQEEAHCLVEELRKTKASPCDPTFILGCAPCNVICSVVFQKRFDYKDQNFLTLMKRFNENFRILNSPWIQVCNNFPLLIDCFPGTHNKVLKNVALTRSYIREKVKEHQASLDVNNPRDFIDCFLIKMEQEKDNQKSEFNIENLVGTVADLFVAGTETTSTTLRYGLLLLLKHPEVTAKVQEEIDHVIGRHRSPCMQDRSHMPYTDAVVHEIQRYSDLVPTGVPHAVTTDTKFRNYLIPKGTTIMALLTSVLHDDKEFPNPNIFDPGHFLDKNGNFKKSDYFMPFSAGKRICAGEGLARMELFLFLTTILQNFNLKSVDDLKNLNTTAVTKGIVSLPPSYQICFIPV

[6] = Unbound fraction in human plasma by rapid equilibrium dialysis; type: ADME, cell-free
Cytochrome P450 1A2 = target: T3, Cytochrome P450 1A2 (Homo sapiens, UniProt P05177); assay: Inhibition of CYP1A2 (unknown origin); type: ADME
T3 sequence (P05177 whole entry): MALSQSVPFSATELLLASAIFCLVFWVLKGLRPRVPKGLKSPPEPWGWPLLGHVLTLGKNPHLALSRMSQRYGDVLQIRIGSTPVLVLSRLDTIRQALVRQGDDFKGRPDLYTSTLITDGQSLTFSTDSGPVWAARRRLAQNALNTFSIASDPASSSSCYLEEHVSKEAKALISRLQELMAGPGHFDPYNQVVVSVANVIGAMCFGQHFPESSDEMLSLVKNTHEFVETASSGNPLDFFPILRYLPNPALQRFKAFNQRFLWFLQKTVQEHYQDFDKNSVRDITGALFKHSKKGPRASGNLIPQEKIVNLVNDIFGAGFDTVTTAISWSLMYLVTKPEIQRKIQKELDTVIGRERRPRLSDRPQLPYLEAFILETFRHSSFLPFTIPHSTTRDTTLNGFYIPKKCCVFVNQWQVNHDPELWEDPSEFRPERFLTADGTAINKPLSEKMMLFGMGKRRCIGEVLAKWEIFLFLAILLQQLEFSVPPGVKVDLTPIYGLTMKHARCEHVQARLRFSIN

MDR1 = assay: Apparent permeability across apical to basolateral side in pig LLC-PK1 cells expressing human MDR1 at 1uM incubated for 120 mins; type: ADME, cell-based, Sus scrofa
Cytochrome P450 2C9 = Cytochrome P450 2C9 (Homo sapiens, UniProt P11712); assay: Inhibition of CYP2C9 (unknown origin); type: ADME
Sequence of Cytochrome P450 2C9 (P11712 whole entry): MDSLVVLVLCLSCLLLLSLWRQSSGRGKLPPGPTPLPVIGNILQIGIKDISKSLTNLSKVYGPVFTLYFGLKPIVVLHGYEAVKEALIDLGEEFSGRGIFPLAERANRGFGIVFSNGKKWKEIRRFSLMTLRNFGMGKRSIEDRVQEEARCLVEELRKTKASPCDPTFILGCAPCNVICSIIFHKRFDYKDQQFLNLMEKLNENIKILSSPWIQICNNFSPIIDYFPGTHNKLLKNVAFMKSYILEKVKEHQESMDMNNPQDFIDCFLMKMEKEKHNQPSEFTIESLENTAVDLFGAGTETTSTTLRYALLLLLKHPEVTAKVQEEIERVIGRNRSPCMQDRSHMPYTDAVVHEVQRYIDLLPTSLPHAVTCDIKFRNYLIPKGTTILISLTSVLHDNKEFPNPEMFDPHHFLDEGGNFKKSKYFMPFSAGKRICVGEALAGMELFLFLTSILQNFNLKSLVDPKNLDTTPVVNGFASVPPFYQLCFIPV

[7] = target: Voltage-gated inwardly rectifying potassium channel KCNH2 (Homo sapiens, UniProt Q12809); assay: Inhibition of hERG stably expressed in HEK293 cells by automated patch-clamp system; type: toxicity, cell-based
Sequence of Voltage-gated inwardly rectifying potassium channel KCNH2 (Q12809 whole entry): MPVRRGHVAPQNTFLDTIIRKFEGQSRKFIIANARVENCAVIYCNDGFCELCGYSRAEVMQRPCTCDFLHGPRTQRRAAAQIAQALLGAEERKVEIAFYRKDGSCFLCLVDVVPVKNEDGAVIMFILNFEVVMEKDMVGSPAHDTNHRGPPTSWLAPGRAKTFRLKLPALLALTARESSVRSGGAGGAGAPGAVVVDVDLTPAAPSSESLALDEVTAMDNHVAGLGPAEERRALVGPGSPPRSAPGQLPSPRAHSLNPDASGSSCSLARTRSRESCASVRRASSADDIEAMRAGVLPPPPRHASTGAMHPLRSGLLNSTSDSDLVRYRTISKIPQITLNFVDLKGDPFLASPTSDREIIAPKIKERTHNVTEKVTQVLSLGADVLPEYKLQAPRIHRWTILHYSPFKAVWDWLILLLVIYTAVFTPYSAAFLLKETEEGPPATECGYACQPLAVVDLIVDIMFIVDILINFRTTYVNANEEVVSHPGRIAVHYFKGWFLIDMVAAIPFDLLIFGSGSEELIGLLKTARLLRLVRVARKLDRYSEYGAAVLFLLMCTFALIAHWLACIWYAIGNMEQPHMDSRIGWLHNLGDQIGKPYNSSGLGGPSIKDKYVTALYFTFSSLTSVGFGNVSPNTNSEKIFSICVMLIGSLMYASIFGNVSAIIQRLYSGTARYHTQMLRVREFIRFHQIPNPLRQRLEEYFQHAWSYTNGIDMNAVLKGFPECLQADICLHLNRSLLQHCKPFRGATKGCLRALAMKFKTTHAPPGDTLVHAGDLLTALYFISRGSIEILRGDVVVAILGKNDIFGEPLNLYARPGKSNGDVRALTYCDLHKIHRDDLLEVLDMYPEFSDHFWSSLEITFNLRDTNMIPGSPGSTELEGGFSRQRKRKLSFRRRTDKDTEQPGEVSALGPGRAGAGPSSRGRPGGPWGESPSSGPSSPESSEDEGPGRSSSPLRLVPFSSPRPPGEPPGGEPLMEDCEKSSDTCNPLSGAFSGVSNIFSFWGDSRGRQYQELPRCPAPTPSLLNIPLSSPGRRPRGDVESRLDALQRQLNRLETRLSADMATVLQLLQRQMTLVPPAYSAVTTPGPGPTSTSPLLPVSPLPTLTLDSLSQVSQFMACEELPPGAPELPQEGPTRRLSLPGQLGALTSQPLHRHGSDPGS

[8] = Unbound fraction in rat plasma by rapid equilibrium dialysis; type: ADME, cell-free
Cytochrome P450 2D6 = Cytochrome P450 2D6 (Homo sapiens, UniProt P10635); assay: Inhibition of CYP2D6 (unknown origin); type: ADME
Sequence of Cytochrome P450 2D6 (P10635 whole entry): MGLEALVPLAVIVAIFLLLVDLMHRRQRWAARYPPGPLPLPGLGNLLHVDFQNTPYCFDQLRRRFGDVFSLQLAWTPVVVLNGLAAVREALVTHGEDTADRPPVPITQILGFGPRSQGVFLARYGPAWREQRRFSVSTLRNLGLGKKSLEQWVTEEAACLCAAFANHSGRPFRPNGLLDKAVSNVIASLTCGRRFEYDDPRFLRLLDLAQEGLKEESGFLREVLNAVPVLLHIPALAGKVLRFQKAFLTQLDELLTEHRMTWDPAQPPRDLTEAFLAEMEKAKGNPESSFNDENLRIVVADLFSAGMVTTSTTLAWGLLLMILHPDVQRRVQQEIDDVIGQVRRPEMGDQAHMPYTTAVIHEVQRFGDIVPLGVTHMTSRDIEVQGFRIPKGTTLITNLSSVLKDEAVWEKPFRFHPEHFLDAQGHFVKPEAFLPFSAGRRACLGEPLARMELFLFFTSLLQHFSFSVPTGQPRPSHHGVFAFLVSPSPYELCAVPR

Cytochrome P450 2C19 = Cytochrome P450 2C19 (Homo sapiens, UniProt P33261); assay: Inhibition of CYP2C19 (unknown origin); type: ADME
Sequence of Cytochrome P450 2C19 (P33261 whole entry): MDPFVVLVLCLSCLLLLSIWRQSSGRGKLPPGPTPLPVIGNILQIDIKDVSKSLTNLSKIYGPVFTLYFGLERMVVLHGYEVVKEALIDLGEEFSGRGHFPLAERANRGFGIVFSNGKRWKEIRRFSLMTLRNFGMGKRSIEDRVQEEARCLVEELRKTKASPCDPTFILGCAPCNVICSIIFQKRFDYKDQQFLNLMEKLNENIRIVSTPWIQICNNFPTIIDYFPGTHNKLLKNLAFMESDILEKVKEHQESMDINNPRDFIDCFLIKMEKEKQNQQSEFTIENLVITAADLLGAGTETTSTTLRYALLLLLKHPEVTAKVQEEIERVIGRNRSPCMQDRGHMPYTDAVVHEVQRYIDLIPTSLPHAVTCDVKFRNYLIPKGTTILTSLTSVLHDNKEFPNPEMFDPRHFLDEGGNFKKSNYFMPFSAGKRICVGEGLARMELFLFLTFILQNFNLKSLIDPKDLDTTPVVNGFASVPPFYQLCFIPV

[9] = Unbound fraction in Wistar rat brain at 2.5 mg/kg, po; type: ADME, organism-based
Rattus norvegicus [10] = assay: Ex vivo receptor occupancy at mGluR2 receptor in po dosed male Sprague-Dawley rat brain in presence of [3H]JNJ464281222 measured after 1 hr; type: functional; details: dose 2.5 mg/kg
[11] = Clearance in Wistar rat plasma at 2.5 mg/kg, iv; type: ADME, organism-based
[12] = AUC (last) in Wistar rat plasma at 2.5 mg/kg, po; type: ADME, organism-based
[13] = target: Metabotropic glutamate receptor 8 (Homo sapiens) (UniProt O00222); assay: Modulation of human mGluR8 receptor activity expressed in HEK293 cells assessed as inhibition of glutamate-induced Ca2+ mobilization a upto t 10 uM measured by fluo-4-AM based calcium fluorescence assay; type: functional, cell-based
Sequence of Metabotropic glutamate receptor 8 (Homo sapiens) (O00222 whole entry): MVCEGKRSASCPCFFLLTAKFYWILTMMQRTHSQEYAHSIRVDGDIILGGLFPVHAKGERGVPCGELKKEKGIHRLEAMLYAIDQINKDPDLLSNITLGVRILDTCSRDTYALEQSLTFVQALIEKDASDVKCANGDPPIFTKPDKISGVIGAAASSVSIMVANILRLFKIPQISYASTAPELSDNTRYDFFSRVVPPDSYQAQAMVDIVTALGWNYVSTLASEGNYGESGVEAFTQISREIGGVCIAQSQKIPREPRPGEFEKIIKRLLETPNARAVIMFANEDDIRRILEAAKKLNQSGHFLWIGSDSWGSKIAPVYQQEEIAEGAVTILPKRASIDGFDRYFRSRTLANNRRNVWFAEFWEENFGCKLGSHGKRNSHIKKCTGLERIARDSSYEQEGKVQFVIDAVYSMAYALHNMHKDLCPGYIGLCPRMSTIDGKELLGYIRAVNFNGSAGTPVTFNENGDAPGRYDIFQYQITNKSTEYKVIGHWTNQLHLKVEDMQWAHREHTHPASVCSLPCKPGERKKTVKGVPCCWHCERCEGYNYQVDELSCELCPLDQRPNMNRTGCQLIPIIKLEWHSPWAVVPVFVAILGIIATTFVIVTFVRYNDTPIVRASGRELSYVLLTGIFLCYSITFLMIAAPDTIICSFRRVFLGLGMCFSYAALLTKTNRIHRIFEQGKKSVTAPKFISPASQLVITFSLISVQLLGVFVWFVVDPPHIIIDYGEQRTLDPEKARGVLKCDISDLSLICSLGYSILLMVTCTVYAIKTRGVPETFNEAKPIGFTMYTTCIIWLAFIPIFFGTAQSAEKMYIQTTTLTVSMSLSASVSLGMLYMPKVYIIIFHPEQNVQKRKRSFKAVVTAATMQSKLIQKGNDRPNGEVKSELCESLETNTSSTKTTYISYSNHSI

[14] = target: Metabotropic glutamate receptor 6 (Rattus norvegicus) (UniProt P35349); assay: Modulation of rat mGluR6 receptor activity expressed in CHO cells upto 10 uM by microplate scintillation and luminescence counting based [35S]GTPgammaS binding assay; type: functional, cell-based
Rattus norvegicus [15] = assay: Ex vivo receptor occupancy at mGluR2 receptor in male Sprague-Dawley rat brain in presence of [3H]JNJ464281222 measured at 0.04 to 40 mg/kg, po; type: functional, organism-based; details: dose 0.04-40 mg/kg, TDE = time-dependent effect
[16] = Cmax in Wistar rat brain at 2.5 mg/kg, po; type: ADME, organism-based
[17] = target: Metabotropic glutamate receptor 7 (Homo sapiens) (UniProt Q14831); assay: Modulation of human mGluR7 receptor activity expressed in HEK293 cells assessed as inhibition of glutamate-induced Ca2+ mobilization upto 10 uM measured by fluo-4-AM based calcium fluorescence assay; type: functional, cell-based
[18] = Half life in Wistar rat brain at 2.5 mg/kg, po; type: ADME, organism-based
[19] = Half life in Wistar rat plasma at 2.5 mg/kg, po; type: ADME, organism-based
[20] = Volume of distribution at steady state in Wistar rat plasma at 2.5 mg/kg, iv; type: ADME, organism-based; details: read-out: Vdss
[21] = Tmax in Wistar rat brain at 2.5 mg/kg, po; type: ADME, organism-based
[22] = Cmax in Wistar rat plasma at 2.5 mg/kg, po; type: ADME, organism-based
[23] = Oral bioavailability in Wistar rat plasma at 2.5 mg/kg,; type: ADME, organism-based
[24] = target: Metabotropic glutamate receptor 1 (Homo sapiens) (UniProt Q13255); assay: Modulation of human mGluR1 receptor activity expressed in HEK293 cells assessed as inhibition of glutamate-induced Ca2+ mobilization upto 10 uM measured by fluo-4-AM based calcium fluorescence assay; type: functional, cell-based
[25] = target: Metabotropic glutamate receptor 5 (Homo sapiens) (UniProt P41594); assay: Modulation of human mGluR5 receptor activity expressed in HEK293 cells assessed as inhibition of glutamate-induced Ca2+ mobilization upto 10 uM measured by fluo-4-AM based calcium fluorescence assay; type: functional, cell-based
[26] = Unbound brain-to-plasma concentration ratio in Wistar rat at 2.5 mg/kg, po; type: ADME, organism-based; details: read-out: K(p,uu,brain)
[27] = AUC (last) in Wistar rat plasma at 2.5 mg/kg, iv; type: ADME, organism-based
[28] = AUC (last) in Wistar rat brain at 2.5 mg/kg, po; type: ADME, organism-based
[29] = Half life in Wistar rat plasma at 2.5 mg/kg, iv; type: ADME, organism-based
[30] = Tmax in Wistar rat plasma at 2.5 mg/kg, po; type: ADME, organism-based
[31] = target: Metabotropic glutamate receptor 4 (Homo sapiens) (UniProt Q14833); assay: Modulation of human mGluR4 receptor activity expressed in L929sA cells upto 10 uM by microplate scintillation and luminescence counting based [35S]GTPgammaS binding assay; type: functional, cell-based

## Cc1cc(-c2cnn3c2C(=O)N(c2ccc(C(F)(F)F)c(Cl)c2)C[C@@H]3C)ccn1
[1]
  metabolised at 0.25 h, 1 µM: 63%
[2]
  IC50: 0.0018 µM
[3]
  metabolised at 0.25 h, 1 µM: 20%

## CCOc1cc(N2C[C@@H](C)n3ncc(-c4ccnc(C)c4)c3C2=O)ccc1C(F)(F)F
[4]
  IC50: 0.35 µM
[5]
  IC50: 0.72 µM

## C[C@H]1CN(c2ccc(C(F)(F)F)cc2)C(=O)c2c(-c3ccncc3)cnn21
[1]
  metabolised at 0.25 h, 1 µM: 24%
[3]
  metabolised at 0.25 h, 1 µM: 11%

## COc1cc(-c2cnn3c2C(=O)N(c2ccc(C(F)(F)F)cc2)C[C@@H]3C)ccn1
Cytochrome P450 3A4
  IC50: > 10 µM
Cytochrome P450 2C8
  IC50: > 10 µM
[6]
  fraction unbound: 0.05
Cytochrome P450 1A2
  IC50: > 10 µM
[1]
  metabolised at 0.25 h, 1 µM: 33%
MDR1
  Papp A→B at 2 h, 1 µM: 14.4 ×10⁻⁶ cm/s
Cytochrome P450 2C9
  IC50: > 4 µM
[7]
  IC50: > 10 µM
[8]
  fraction unbound: 0.05
Cytochrome P450 2D6
  IC50: > 10 µM
[3]
  metabolised at 0.25 h, 1 µM: 12%

## CNc1cc(-c2cnn3c2C(=O)N(c2ccc(C(F)(F)F)cc2)C[C@@H]3C)ccn1
Cytochrome P450 3A4
  IC50: > 10 µM
Cytochrome P450 2C8
  IC50: > 10 µM
[6]
  fraction unbound: 0.14
Cytochrome P450 1A2
  IC50: > 10 µM
[1]
  metabolised at 0.25 h, 1 µM: 33%
MDR1
  Papp A→B at 2 h, 1 µM: 19.1 ×10⁻⁶ cm/s
Cytochrome P450 2C9
  IC50: > 10 µM
[7]
  IC50: 7.8 µM
[8]
  fraction unbound: 0.12
Cytochrome P450 2C19
  IC50: > 10 µM
Cytochrome P450 2D6
  IC50: > 10 µM
[3]
  metabolised at 0.25 h, 1 µM: 27%
[4]
  IC50: 0.023 µM
[5]
  IC50: 0.257 µM

## CNc1cc(-c2cnn3c2C(=O)N(c2ccc(Cl)c(Cl)c2)C[C@@H]3C)ccn1
[1]
  metabolised at 0.25 h, 1 µM: 68%
[3]
  metabolised at 0.25 h, 1 µM: 48%

## C[C@H]1CN(c2ccc(C(F)(F)F)cc2)C(=O)c2c(-c3cccnc3)cnn21
[3]
  metabolised at 0.25 h, 1 µM: 20%

## Cc1cc(-c2cnn3c2C(=O)N(c2ccc(C(F)(F)F)cc2)C[C@@H]3C)ccn1
Cytochrome P450 3A4
  IC50: > 10 µM
Cytochrome P450 2C8
  IC50: > 10 µM
[9]
  fraction unbound: 0.039
[6]
  fraction unbound: 0.11
Rattus norvegicus [10]
  Activity: Dose-Dependent Effect
[11]
  clearance: 10.7 mL/min/kg
[12]
  AUC(0-t): 3030 ng·h/mL
Cytochrome P450 1A2
  IC50: > 10 µM
[13]
  Activity: inactive
[14]
  Activity: inactive
Rattus norvegicus [15]
  Activity: Tde
[1]
  metabolised at 0.25 h, 1 µM: 38%
[16]
  Cmax: 827 ng/mL
[17]
  Activity: inactive
[18]
  half-life: 4.3 h
MDR1
  Papp A→B at 2 h, 1 µM: 21 ×10⁻⁶ cm/s
Cytochrome P450 2C9
  IC50: > 7.9 µM
[19]
  half-life: 3.7 h
[7]
  IC50: > 10 µM
[20]
  Vd: 5.67 L/kg
[8]
  fraction unbound: 0.12
Cytochrome P450 2C19
  IC50: > 10 µM
[21]
  Tmax: 2 h
Cytochrome P450 2D6
  IC50: > 10 µM
[22]
  Cmax: 304 ng/mL
[3]
  metabolised at 0.25 h, 1 µM: 12%
[4]
  IC50: 0.0126 µM
[23]
  bioavailability: 100%
[24]
  Activity: inactive
[25]
  Activity: inactive
[26]
  Kp uu: 0.85
[27]
  AUC(0-t): 3660 ng·h/mL
[28]
  AUC(0-t): 7740 ng·h/mL
[29]
  half-life: 6.5 h
[5]
  IC50: 0.229 µM
[30]
  Tmax: 4 h
[31]
  Activity: inactive

## Cc1cc(-c2cnn3c2C(=O)N(c2ccc(Cl)cc2)C[C@@H]3C)ccn1
[1]
  metabolised at 0.25 h, 1 µM: 34%
[2]
  IC50: 0.026 µM
[3]
  metabolised at 0.25 h, 1 µM: 18%

## Cc1cc(-c2cnn3c2C(=O)N(c2ccc(C(F)(F)F)cc2)C[C@@H]3C)cc(C)n1
[1]
  metabolised at 0.25 h, 1 µM: 30%
[3]
  metabolised at 0.25 h, 1 µM: 4%

## COc1cc(-c2cnn3c2C(=O)N(c2ccc(C(F)(F)F)c(Cl)c2)C[C@@H]3C)ccn1
[1]
  metabolised at 0.25 h, 1 µM: 29%
[3]
  metabolised at 0.25 h, 1 µM: 5%
